Test results from the supplement of paper PMC6045584.
± gives the standard deviation of the averaged measurements.

How the values were obtained:
[1] = compound: CCc1cc(Nc2nccc(-c3c(-c4ccc(OC)c(C(=O)Nc5c(F)cccc5F)c4)nc4ccccn34)n2)c(OC)cc1N1CCC(N2CCN(S(C)(=O)=O)CC2)CC1; assay: surviving fraction relative to DMSO-only wells; higher = less growth inhibition; settings: exposure time: 5 days
Method in brief: (§1)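 Five days of continuous inhibitor exposure, at 0.5, 1, 5, 10, 50, 100, 500 and 1000 nM, followed a 24-hour period after log-phase tumour cell lines were seeded at 250–500 cells per well in 384-well plates. Surviving fraction was derived from CellTiter-Glo luminescence relative to the median of DMSO-only wells. Plates were read after 10 minutes at room temperature, and lines screened three times were kept only if replicate Pearson r >0.7 and median Z' >0.3.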

[2] = compound: COc1ccc(-c2cc3c(C)nc(N)nc3n([C@H]3CC[C@H](OCCO)CC3)c2=O)cn1; assay: as above; settings: exposure time: 5 days
Method in brief: as §1

| Test System | surviving fraction ([1]; 0.5 nM) | surviving fraction ([1]; 1 nM) | surviving fraction ([1]; 5 nM) | surviving fraction ([1]; 10 nM) | surviving fraction ([1]; 50 nM) | surviving fraction ([1]; 100 nM) | surviving fraction ([1]; 500 nM) | surviving fraction ([1]; 1000 nM) | surviving fraction ([2]; 0.5 nM) | surviving fraction ([2]; 1 nM) | surviving fraction ([2]; 5 nM) | surviving fraction ([2]; 10 nM) | surviving fraction ([2]; 50 nM) | surviving fraction ([2]; 100 nM) | surviving fraction ([2]; 500 nM) | surviving fraction ([2]; 1000 nM) |
| --- | --- | --- | --- | --- | --- | --- | --- | --- | --- | --- | --- | --- | --- | --- | --- | --- |
| CASKI CERVIX | 0.937 ± 0.051 | 0.949 ± 0.055 | 0.97 ± 0.048 | 0.979 ± 0.04 | 0.946 ± 0.015 | 1.01 ± 0.043 | 0.967 ± 0.07 | 0.88 ± 0.039 | 0.91 ± 0.034 | 0.901 ± 0.034 | 0.779 ± 0.05 | 0.922 ± 0.031 | 0.426 ± 0.022 | 0.147 ± 0.009 | 0.0347 ± 0.0047 | 0.338 ± 0.52 |
| SUM149.B1*.S BREAST | 0.994 ± 0.024 | 1.05 ± 0.033 | 1.05 ± 0.051 | 1.1 ± 0.02 | 1.01 ± 0.047 | 1.081 ± 0.01 | 1.05 ± 0.082 | 1.04 ± 0.048 | 0.985 ± 0.03 | 1.02 ± 0.059 | 1.02 ± 0.032 | 0.995 ± 0.037 | 0.924 ± 0.011 | 0.823 ± 0.03 | 0.475 ± 0.014 | 0.339 ± 0.017 |
| 143B BONE | 0.985 ± 0.033 | 0.959 ± 0.086 | 0.928 ± 0.13 | 1.03 ± 0.031 | 0.9995 ± 0.0035 | 0.996 ± 0.052 | 0.999 ± 0.0042 | 0.959 ± 0.023 | 0.995 ± 0.0057 | 0.992 ± 0.014 | 1.01 ± 0.039 | 0.966 ± 0.025 | 0.946 ± 0.011 | 0.896 ± 0.02 | 0.391 ± 0.016 | 0.267 ± 0.013 |
| MDAMB436 BREAST | 1.01 ± 0.065 | 0.997 ± 0.064 | 0.933 ± 0.063 | 0.965 ± 0.041 | 0.961 ± 0.11 | 0.967 ± 0.071 | 1.04 ± 0.07 | 0.887 ± 0.11 | 0.881 ± 0.036 | 0.856 ± 0.055 | 0.8 ± 0.031 | 0.75 ± 0.051 | 0.582 ± 0.027 | 0.432 ± 0.023 | 0.265 ± 0.016 | 0.2398 ± 0.0015 |
| SNU475 LIVER | 0.88 ± 0.066 | 0.966 ± 0.042 | 0.982 ± 0.024 | 0.976 ± 0.062 | 0.982 ± 0.025 | 0.956 ± 0.023 | 0.957 ± 0.054 | 0.875 ± 0.061 | 0.94 ± 0.013 | 0.951 ± 0.022 | 0.891 ± 0.041 | 0.865 ± 0.012 | 0.625 ± 0.014 | 0.404 ± 0.036 | 0.127 ± 0.0076 | 0.0823 ± 0.0011 |
| HELA CERVIX | 1.05 ± 0.035 | 1.07 ± 0.04 | 1.08 ± 0.027 | 1.09 ± 0.041 | 1.05 ± 0.05 | 1.07 ± 0.025 | 1.01 ± 0.066 | 0.97 ± 0.026 | 0.998 ± 0.04 | 0.989 ± 0.088 | 1.02 ± 0.042 | 1.02 ± 0.035 | 1.11 ± 0.039 | 1.06 ± 0.052 | 0.4 ± 0.019 | 0.318 ± 0.017 |
| 93VU HEADNECK | 1.03 ± 0.062 | 1.09 ± 0.15 | 1.1 ± 0.21 | 1.12 ± 0.063 | 1.11 ± 0.033 | 1.05 ± 0.089 | 0.932 ± 0.051 | 0.936 ± 0.094 | 0.94 ± 0.015 | 0.995 ± 0.14 | 0.923 ± 0.075 | 0.979 ± 0.044 | 0.582 ± 0.14 | 0.351 ± 0.068 | 0.0697 ± 0.0051 | 0.047 ± 0.0046 |
| ZR751 BREAST | 0.886 ± 0.14 | 0.98 ± 0.062 | 0.876 ± 0.11 | 0.935 ± 0.1 | 0.87 ± 0.07 | 0.895 ± 0.12 | 0.928 ± 0.094 | 0.954 ± 0.093 | 1.13 ± 0.17 | 1.04 ± 0.15 | 0.783 ± 0.13 | 0.708 ± 0.11 | 0.328 ± 0.039 | 0.182 ± 0.038 | 0.091 ± 0.013 | 0.0693 ± 0.012 |
| S68 BREAST | 0.916 ± 0.045 | 1.22 ± 0.11 | 1.29 ± 0.2 | 1.06 ± 0.18 | 1.1 ± 0.26 | 1.06 ± 0.27 | 0.688 ± 0.022 | 0.737 ± 0.089 | 0.953 ± 0.24 | 0.88 ± 0.11 | 0.993 ± 0.2 | 0.845 ± 0.18 | 0.334 ± 0.082 | 0.16 ± 0.02 | 0.0503 ± 0.0051 | 0.034 ± 0.001 |
| SCC003 HEADNECK | 0.958 ± 0.069 | 1.13 ± 0.031 | 0.966 ± 0.024 | 1.1 ± 0.12 | 1.03 ± 0.14 | 1.1 ± 0.19 | 1.03 ± 0.019 | 1.08 ± 0.085 | 1.03 ± 0.13 | 1.04 ± 0.057 | 1.02 ± 0.18 | 1.02 ± 0.036 | 0.879 ± 0.098 | 0.878 ± 0.13 | 0.23 ± 0.034 | 0.206 ± 0.049 |
| RDES SOFT TISSUE | 1.25 ± 0.081 | 1.13 ± 0.14 | 1.19 ± 0.15 | 1.2 ± 0.043 | 0.998 ± 0.2 | 1.09 ± 0.043 | 0.924 ± 0.1 | 1.25 ± 0.21 | 1.23 ± 0.074 | 1.24 ± 0.12 | 1.13 ± 0.1 | 1.22 ± 0.097 | 1.34 ± 0.055 | 1.03 ± 0.038 | 0.301 ± 0.015 | 0.166 ± 0.021 |
| VCAP PROSTATE | 1.02 ± 0.1 | 1.05 ± 0.072 | 0.986 ± 0.12 | 1.07 ± 0.042 | 0.984 ± 0.091 | 1.05 ± 0.03 | 1.03 ± 0.055 | 0.9673 ± 0.0061 | 1.01 ± 0.05 | 1.08 ± 0.04 | 1.06 ± 0.14 | 0.983 ± 0.056 | 0.706 ± 0.027 | 0.52 ± 0.023 | 0.161 ± 0.013 | 0.0997 ± 0.016 |
| SG43 HEADNECK | 1.18 ± 0.18 | 1.1 ± 0.26 | 0.948 ± 0.15 | 0.985 ± 0.15 | 1.13 ± 0.046 | 0.908 ± 0.12 | 1.38 ± 0.024 | 1.25 ± 0.3 | 0.954 ± 0.097 | 1 ± 0.041 | 0.747 ± 0.054 | 0.613 ± 0.06 | 0.506 ± 0.046 | 0.427 ± 0.032 | 0.266 ± 0.02 | 0.168 ± 0.007 |
| CHLA90 AUTONOMIC GANGLIA | 0.955 ± 0.039 | 1 ± 0.011 | 0.969 ± 0.054 | 0.932 ± 0.028 | 0.9353 ± 0.0021 | 0.94 ± 0.05 | 0.986 ± 0.031 | 0.952 ± 0.055 | 1.05 ± 0.018 | 1 ± 0.061 | 0.951 ± 0.077 | 0.86 ± 0.04 | 0.753 ± 0.015 | 0.586 ± 0.045 | 0.206 ± 0.014 | 0.102 ± 0.0045 |
| NY BONE | 0.969 ± 0.012 | 0.982 ± 0.027 | 1.023 ± 0.0066 | 1.09 ± 0.014 | 1.03 ± 0.039 | 1.04 ± 0.023 | 0.993 ± 0.025 | 0.977 ± 0.024 | 0.925 ± 0.027 | 0.916 ± 0.038 | 0.909 ± 0.022 | 0.84 ± 0.047 | 0.668 ± 0.029 | 0.602 ± 0.028 | 0.369 ± 0.019 | 0.317 ± 0.0068 |
| SCC36 HEADNECK | 0.967 ± 0.035 | 1.04 ± 0.096 | 1.11 ± 0.091 | 1.1 ± 0.072 | 1.07 ± 0.027 | 1.09 ± 0.078 | 0.887 ± 0.03 | 0.791 ± 0.024 | 1.11 ± 0.012 | 0.988 ± 0.031 | 0.914 ± 0.016 | 1.11 ± 0.056 | 0.807 ± 0.017 | 0.84 ± 0.086 | 0.167 ± 0.024 | 0.143 ± 0.024 |
| SUM159 BREAST | 1.1 ± 0.27 | 1.17 ± 0.28 | 1.15 ± 0.24 | 1.14 ± 0.2 | 1.11 ± 0.21 | 1.12 ± 0.19 | 1.07 ± 0.14 | 1.08 ± 0.18 | 1.1 ± 0.16 | 1.12 ± 0.18 | 1.1 ± 0.17 | 1.1 ± 0.17 | 1.05 ± 0.074 | 0.839 ± 0.036 | 0.181 ± 0.014 | 0.119 ± 0.006 |
| HCC1954 BREAST | 0.996 ± 0.012 | 0.821 ± 0.02 | 0.904 ± 0.12 | 1.1 ± 0.052 | 0.982 ± 0.06 | 1 ± 0.1 | 0.913 ± 0.11 | 0.638 ± 0.068 | 0.993 ± 0.024 | 0.945 ± 0.056 | 1.153 ± 0.0064 | 1.03 ± 0.044 | 0.487 ± 0.08 | 0.322 ± 0.047 | 0.0592 ± 0.0095 | 0.0478 ± 0.0011 |
| OS25HAL BONE | 0.997 ± 0.011 | 1.02 ± 0.011 | 1.032 ± 0.01 | 1.04 ± 0.037 | 1.02 ± 0.015 | 1.04 ± 0.018 | 0.948 ± 0.055 | 0.944 ± 0.05 | 0.95 ± 0.012 | 0.9753 ± 0.0029 | 0.9657 ± 0.0091 | 0.86 ± 0.041 | 0.603 ± 0.042 | 0.35 ± 0.066 | 0.13 ± 0.0092 | 0.0623 ± 0.0049 |
| HCT15 LARGE INTESTINE | 0.963 ± 0.028 | 0.995 ± 0.028 | 0.99 ± 0.027 | 1.03 ± 0.03 | 1 ± 0.02 | 1.05 ± 0.016 | 1.12 ± 0.036 | 1.06 ± 0.017 | 0.981 ± 0.029 | 1.04 ± 0.051 | 1.01 ± 0.016 | 0.975 ± 0.021 | 0.76 ± 0.016 | 0.543 ± 0.04 | 0.16 ± 0.013 | 0.091 ± 0.0046 |
| SCC47 HEADNECK | 0.99 ± 0.038 | 0.992 ± 0.047 | 1.05 ± 0.047 | 1.06 ± 0.021 | 1 ± 0.075 | 1.08 ± 0.038 | 1.04 ± 0.028 | 1.03 ± 0.04 | 0.983 ± 0.021 | 0.992 ± 0.084 | 0.992 ± 0.027 | 1.01 ± 0.015 | 0.903 ± 0.032 | 0.886 ± 0.019 | 0.371 ± 0.013 | 0.225 ± 0.0095 |
